Experimental findings from patent US12187767B2 (priority 2021, dated 2025) are described below.

“Also recorded” adds a separate entry of the source. Ends that are not written are not given here.

Common to all, as to assay type: cell-based
Series [1] deals with MDA-MB-231 cells. Nature of the series: Western blot analysis of EV protein content. To be noted: 48 hours treatment. The procedure:
(§1) 1.3. EV isolation and purification. EVs were isolated from cells by differential centrifugation as previously described (Ali SA. et al., 2010). Untreated cells were used as a control. Briefly, the above treated and untreated cell culture supernatants were centrifuged at 400×g for 10 minutes. The supernatants were transferred to a clear tube and centrifuged at 10,000×g for 30 minutes. The supernatants from the second spin were […] ultracentrifuged at 200,000×g for 2 hours to pellet the EVs. Finally, the EV pellets were re-suspended with PBS and stored at 4° C. until used for analysis.
(§2) 1.6. Western blot analysis. EVs were isolated from culture supernatants as described above. Protein concentrations were determined by measuring absorbance at 280 nm (Nanodrop 2000). Protein samples were denatured in SDS-PAGE sample buffer by heating at 95° C. for 15 min. Criterion TGX Precast Gels (4-20% Bio-Rad, Richmond, CA) were used to separate the proteins and blotted as previously described (Huang MB. et al 2004). Blots were incubated with the primary antibodies, anti-CD63 and anti-Alix, followed by goat or rabbit anti-Ig secondary antibodies. Specific bands were detected using ECL chemiluminescent substrate (Santa Cruz Biotechnology, Santa Cruz, CA) and visualized on the ImageQuant LAS 4000 imaging system (GE Healthcare, Piscataway, NJ 08854).
(§3) Western blot analysis was used to examine the effects of the SMRwt peptides, PEG-SMRwt-Clu peptide and SMRwt-CPP peptide, and the mortalin inhibitors MKT-077, Omeprazole, and DMA on EV protein content in MCF-7, MDA-MB-231 and K562 cells. Negative control treatments included the PEG-SMRmut-Clu peptide, […] (SEQ ID NO: 49) and the SMRmut-CPP peptide, […] (SEQ ID NO: 50). EVs were isolated from all treated and untreated cell lines screened. Western blot analyses were carried out to evaluate the expression levels of the exosomal proteins, Alix, mortalin, and vimentin in MCF-7 cells (FIG. 7, Panel A, left sub-panel), MDA-MB-231 cells (FIG. 7, Panel A, middle sub-panel), and K562 cells (FIG. 7, Panel A, right sub-panel).

The test system of series [2] is MCF-7 cells. Nature of the series: Western blot analysis of EV protein content. To be noted: 48 hours treatment; for Alix expression in EVs / Vimentin expression in EVs: relative to negative controls. On the procedure:
as §1, §2, §3

The next series relates to K562 cells. Kind of series: Western blot analysis of EV protein content. To be noted: 48 hours treatment. On the procedure:
as §1, §2, §3

In series [3] the test system is MCF-7, MDA-MB-231 and K562 cells. Nature of the series: Exosome/EV release, overall statements across cell lines (AchE, NanoSight, Western blot). To be noted: MCF-7, MDA-MB-231 and K562 cells; five days at 37° C.; AchE assay. On the procedure:
Acetylcholinesterase (AchE) assays, NanoSight analysis and Western blot analysis were performed to characterize EVs released from MCF-7 and MDA-MB-231 cells treated for 48 hr with the various peptides.
To further examine the underlying mechanism for blocking exosome release, a study was extended to examine the effects of the SMRwt peptides, PEG-SMRwt-Clu peptide and SMRwt-CPP peptide, and the mortalin inhibitors MKT-077, Omeprazole, and DMA on exosome release. In particular, acetylcholinesterase (AchE) assays, NanoSight analysis and Western blot analysis were performed to characterize EVs released from MCF-7, MDA-MB-231 and K562 cells. Panels A, B and C depict the relative numbers of EVs released as a function of time as measured by an acetylcholinesterase (AchE) assay in MCF-7 cells (FIG. 6, Panel A); MDA-MB-231 cells (FIG. 6, Panel B); and K562 cells (FIG. 6, Panel C).

Series [4] has as its system MDA-MB-231 cells. Kind of series: Acetylcholinesterase (AchE) assay of exosome/EV release. To be noted: MDA-MB-231 cells; for average AChE concentration levels throughout day 1 to 5: five-day treatment at 37° C.; for AChE on day 1 (initial increase): five-day treatment, mock 146.52. The procedure:
as §1
(§4) 1.4. Exosome characterization by acetylcholinesterase (AchE) assay. Purified EVs were quantitated by measurement of AchE as described (Ellman et al., 1961). Briefly, a 100 mM dithibionitrobenzoic (DTNB) solution was prepared for use as a stock color indicator, and a 28.9 mg/mL acetylthiocholine iodide in PBS solution was prepared as a stock substrate. The stock substrate stock can be stored at −20° C. up to one month, while the color indicator can be stored at 4° C. for two weeks. A working solution was prepared by mixing 10 mL of PBS with 200 μL of Substrate and 500 μl of DTNB. 50 μL of each exosome sample was transferred to 96 well microtitre plates, and a standard curve was prepared using AchE from 0.98 mU/mL to 2000 mU/mL. After 50 μL of standards were added into separate wells, 200 μL of the working solution was added to all wells. After 20 min incubation, AchE activity was measured at 450 nm using a SpectroMax M5 fluorimeter.

Series [5] relates to MCF-7 cells. The series is described as above. Conditions: MCF-7 cells; for average AChE concentrations throughout days 1 to day 5: five-day treatment at 37° C.; for AchE concentrations on day 3 / AchE concentrations, initial increase: five-day treatment; for AchE concentrations on day 3: mock 69.15; for AchE concentrations, initial increase: initial increase on days 1 and/or 2, mock 155.13. The procedure: as §1, §4

Series [6] concerns K562, MCF-7 and MDA-MB-231 cultures. Kind of series: Complement-mediated cytotoxicity, overall statements across cell lines. To be noted: peptide, then anti-CXCR4 antibody and NHS. The procedure:
Therefore, it was of interest to see whether SMR peptide driven mortalin sequestration and functional disruption increases cell sensitivity to complement-induced cell death. Accordingly, MCF-7, MDA-MB-231, and K562 cells were treated with 280 nM PEG-SMRwt-Clu peptide or 560 nM SMRwt-CPP peptide alone for 60 min at 37° C., followed by treatment with 1 μg/mL anti-CXCR4 antibody and 50 μL normal human serum (NHS; as a source of complement) or normal heat-inactivated (human) serum (NIS) for an additional 60 min at 37° C. (FIG. 8). PEG-SMRmut-Clu peptide and SMRmut-CPP peptide were used as negative controls. The percentage of stained (dead) cells was determined by trypan blue exclusion and is representative of 3 independent experiments.
To further validate the ability of mortalin neutralization to render or enhance complement-mediated cytotoxicity, MCF-7, MDA-MB-231 and K562 cells were transfected with vectors expressing mortalin siRNAs or negative control siRNAs, incubated for 72 hours at 37° C., treated with anti-CXCR4 antibody for 30 minutes at 4° C. followed by incubation with either NHS or NIS for 60 minutes at 37° C.

For `COc1ccc2[nH]c([S+]([O-])Cc3ncc(C)c(OC)c3C)nc2c1` (stereo not drawn) [Omeprazole, 5-Methoxy-2-[[(4-methoxy-3,5-dimethyl-2-pyridinyl)methyl]sulfinyl]-1H-benzimidazole], in the series on MDA-MB-231 cells [1], the “Mortalin expression in EVs” value is given as “No significant change” and the “Vimentin expression in EVs” value is “no significant change”. In the series with MCF-7 cells [2], the “Mortalin expression in EVs” value was “no significant changes”, the “Alix expression in EVs” value is given as “not accompanied by significant reductions” and the “Vimentin expression in EVs” value is reported as “significantly decreased”. Further, in the series on K562 cells, the “Alix expression in EVs” value was “significantly decreased”, the “Mortalin expression in EVs” value was “significantly decreased” and the “Vimentin expression in EVs” value was “significantly increased”. In addition, the “exosome/EV release (number of EVs released)” value (“exosome/EV release” for short) in series [3] was “reduced the number of EVs released; also recorded: blocked exosome release”. Further, the “average AChE concentration levels throughout day 1 to 5” value in the series with MDA-MB-231 cells [4] is 25 mU/mL. Moreover, the “average AChE concentrations throughout days 1 to day 5” value in the series with MCF-7 cells [5] is listed as 26 mU/mL.
Turning to “AGFPVAAAGFPVGRKKRRQRRRPPQ (SEQ ID NO: 50) (Synthetic SMRmut-CPP)”, the “AChE on day 1 (initial increase)” value in the series on MDA-MB-231 cells [4] came to 141.47 mU/mL. Besides, in the series on MCF-7 cells [5], the “AchE concentrations on day 3” value stood at 66.05 mU/mL and the “AchE concentrations, initial increase” value is listed as 150.06 mU/mL.
Take VGFPVAAVGFPVGRKKRRQRRRPPQ [SMRwt-CPP]: the “complement-mediated cytotoxicity / cell death in the presence of NHS” value in series [6] is on record as “induce complement-mediated cytotoxicity”.
With `CCn1c(=Cc2cccc[n+]2CC)sc(=C2Sc3ccccc3N2C)c1=O.[Cl-]` [MKT-077, 1-Ethyl-2-[[3-ethyl-5-(3-methyl-2(3H)-benzothiazolylidene)-4-oxo-2-thiazolidinylidene]methyl]-pyridinium chloride], the “Mortalin expression in EVs” value with MDA-MB-231 cells [1] is given as “No significant change”; in the series on MCF-7 cells [2], “significantly decreased”; in the series with K562 cells, “significantly decreased”. For the same compound, the “Vimentin expression in EVs” value in the series on MDA-MB-231 cells [1] is given as “no significant change”; with MCF-7 cells [2], “significantly decreased”; in the series on K562 cells it was “significantly increased”. For the same compound, the “Alix expression in EVs” value in the series with MCF-7 cells [2] and with K562 cells was “significantly decreased” throughout. Besides, the “exosome/EV release” value in series [3] is “reduced the number of EVs released; also recorded: blocked exosome release”. The “average AChE concentration levels throughout day 1 to 5” value with MDA-MB-231 cells [4] was determined as 29 mU/mL. In addition, the “average AChE concentrations throughout days 1 to day 5” value in the series with MCF-7 cells [5] stood at 22 mU/mL.
On to `CN(C)c1nc(N)c(C(=O)NC(=N)N)nc1Cl` [DMA, 5-(N,N-Dimethyl)amiloride], for which the “Vimentin expression in EVs” value with MDA-MB-231 cells [1] was “significantly decreased”. In the series with MCF-7 cells [2], the “Mortalin expression in EVs” value is reported as “no significant changes”, the “Alix expression in EVs” value is “not accompanied by significant reductions” and the “Vimentin expression in EVs” value is listed as “significantly decreased”. In the series with K562 cells, the “Alix expression in EVs” value was “significantly decreased”, the “Mortalin expression in EVs” value is given as “significantly decreased” and the “Vimentin expression in EVs” value is given as “significantly increased”. Moreover, the “exosome/EV release” value in series [3] was “reduced the number of EVs released; also recorded: blocked exosome release”. Also, the “average AChE concentration levels throughout day 1 to 5” value in the series on MDA-MB-231 cells [4] worked out at 37 mU/mL. In the series on MCF-7 cells [5], the “average AChE concentrations throughout days 1 to day 5” value was 26 mU/mL.
For “NXNAGFPVAAAGFPVHPLSKHPYWSQP (SEQ ID NO: 49) [PEG-SMRmut-Clu]”, the “AChE on day 1 (initial increase)” value in the series on MDA-MB-231 cells [4] is on record as 146.79 mU/mL. Moreover, in the series with MCF-7 cells [5], the “AchE concentrations on day 3” value stood at 69.0 mU/mL and the “AchE concentrations, initial increase” value stood at 151.5 mU/mL.
